Experimental data: patent US20260115280A1, “VACCINES” (ADJUVANCE TECHNOLOGIES, INC., priority 2021, published 2026)

What was measured:
gE [1] = test: Anti-gE ELISA, D28 total IgG endpoint titers (Example 5); format: in vivo, Varicella zoster virus; settings: CD-1 mice; high vs low TLR4 agonist dose with 5 mcg gE + 40 mcg TQL-1055 FA HPβCD
Description: (§1) The tolerability and immunogenicity of formulations containing (TQL-1055 free acid HP-β-CD (2-hydroxypropyl beta-cyclodextrin) and TLR4 agonist candidates were studied. CD-1 mice were immunized as shown in the table below. PHAD liposomes were obtained from Avanti. EcML was obtained from EuBiologics. CRX-527 was obtained from InvivoGen. TLR4a-1 is an undisclosed TLR4 compound. AS01 is a combination of 5 mcg QS-21 and 5 mcg MPL used in SHINGRIX.
(§2) Mice were immunized via I.M. on Day 0 and Day 14. Groups were bled at Day-1, Day 13 (post Dose 1), and Day 28 (post Dose 2) for serum analysis for anti-gE specific antibody response and anti-gE specific T cell response. Weight measurements were also obtained on Days 0, 1, 2, 14, 15, 16, and 17.

gE [2] = test: Anti-gE ELISA, D28 IgG2a subclass endpoint titers (Example 5); format: in vivo, Varicella zoster virus; settings: CD-1 mice; with 5 mcg gE + 40 mcg TQL-1055; EcML statement at the low TLR4a dose
Description: as §1, §2
Similar responses were observed from all 4 TLR4 agonists with CRX-527 having the lowest IgG2a titers. There was a more pronounced dose effect of TLR4a on IgG2a than total IgG. PHAD had the largest difference between low and high dose at 8 times higher. At the low TLR4a dose, EcML had the highest IgG2a.

CD4+ T cells [3] = test: D26 CD4 T-cell ICS (Example 5); format: in vivo; settings: CD-1 mice, high dose PHAD, high dose CRX-527, low dose TLR4a-1 (each with gE + 40 mcg TQL-1055)
Description: as §1
(§3) Mice were immunized via I.M. on Day 0 and Day 14. […] Weight measurements were also obtained on Days 0, 1, 2, 14, 15, 16, and 17.
The increases were driven largely by higher single cytokine positive T cells for IFN-γ or IL-2.

CD8 T cells = test: D26 CD8 T-cell ICS (Example 5); format: in vivo; settings: CD-1 mice; high dose PHAD, both doses CRX-527, high dose TLR4a-1 (each with gE + 40 mcg TQL-1055); AS01
Description: as §1, §3

CD4+ T cells [4] = test: D42 CD4 T-cell ICS (Example 5); format: in vivo; settings: CD-1 mice; AS01; both PHAD doses, high dose TLR4a-1, high dose CRX-527 (each with gE + 40 mcg TQL-1055)
Description: as §1, §2
Overall, levels of activation much lower than D26 T cell data.

CD4+ T cells [5] = test: T-cell intracellular cytokine staining (ICS) assay, CD4+ T-cell (Example 4); format: in vivo; settings: mice
Description: (§4) The impact of TQL-1055 choline salt (in situ salt) at various dosages, a TLR9 or TLR4 agonist, and VZV gE (expressed by CHO cells), as compared to AS-01B (5 mcg MPL+5 mcg QS-21) was tested. In Experiment #1, mice were immunized with PBS alone, gE (5 mcg)+TLR9 ligand (50 mcg)+TQL-1055 (four groups: 5 mcg, 15 mcg, 25 mcg, 50 mcg), and AS-01B. In Experiment #2, mice were immunized with PBS alone, gE (5 mcg)+TLR4 ligand (5 mcg)+TQL-1055 (four groups: 5 mcg, 15 mcg, 25 mcg, 50 mcg), and AS-01B.
(§5) Mice were immunized at Day 0 and Day 21. Groups were bled at Day 31 […] for serum analysis.
FIG. 22 is a graph depicting the results of a T-cell intracellular cytokine staining (ICS) assay (CD4+ T-cell) showing the percentage of CD4+ T cells expressing one or more cytokines in response to stimulation with VZV gE for Experiment 1. FIG. 23 is a graph depicting the results of T-cell intracellular cytokine staining (ICS) assays (CD4+ T-cell) showing the percentage of CD4+ T cells expressing one or more cytokines in response to stimulation with VZV gE for Experiment 2.

spleen lymphocytes = test: FluoroSpot (T-cell) assay, spot forming cells per million spleen lymphocytes (Example 4); format: in vivo; settings: mice
Description: as §4, §5
FIG. 24 is a graph depicting the results of a FluroSpot (T-cell) assay showing spot forming cells per million spleen lymphocytes for Experiment 1. FIG. 25 is a graph depicting the results of a FluroSpot (T-cell) assay showing spot forming cells per million spleen lymphocytes for Experiment 2.

VZV gE = test: ELISA antibody titers (Example 4); format: in vivo, Varicella zoster virus; settings: mice
Description: as §4, §5
FIG. 26 is a graph depicting the results of an enzyme-linked immunosorbent assay (ELISA) showing antibody titers for […]. FIG. 27 is a graph depicting the results of an enzyme-linked immunosorbent assay (ELISA) showing antibody titers for Experiment 1.

[6] = Weight loss: mean percent initial weight change after immunization (Example 6); format: in vivo, C57BL/6J mice; settings: mice; TQL 1055 alone with gE
Description: as §1
The study was conducted in two parts with staggered start dates. Part A involved testing TQL1055 in combination with PHAD and EcML. Part B involved testing TQL1055 in combination with CRX-527 and TR4a-1.
Mice were immunized via I.M. on Day 0 and Day 14. Groups were bled at Day-1, Day 13 (post Dose 1), and Day 28 (post Dose 2) for serum analysis for anti-gE specific antibody response. Weight measurements were also obtained on Days 0, 1, 2, 14, 15, 16, and 17.
Post dose 1 mean percent (%) initial weight change for each group is depicted in FIGS. 40-45. Post dose 1 weight loss heatmaps are depicted in FIG. 46. Post dose 2 mean percent (%) initial weight change for each group is depicted in FIGS. 47-51. […] Weight loss appeared to be driven mostly by TLR4 dose.

[7] = gE 5 mcg + TLR9 ligand 50 mcg or TLR4 ligand 5 mcg + TQL-1055 5, 15, 25, 50 mcg
[8] = TQL-1055 5 mcg combined with TLR4 ligand vs AS-01B

SMILES	effect of increasing the TLR4 agonist dose on D28 total IgG endpoint titers (gE [1])	rank of IgG2a titers among the 4 TLR4 agonists (gE [2])	D26 total cytokine+ CD4+ T cells compared to unadjuvanted (CD4+ T cells [3]; AS01)	D26 total polyfunctional CD4+ T cells compared to unadjuvanted control (CD4+ T cells [3])	D26 activated CD8 T cells compared to unadjuvanted control group (CD8 T cells)	D42 total cytokine+ CD4+ T cells compared to unadjuvanted (CD4+ T cells [4])	T-cell response by ICS compared to AS-01B (CD4+ T cells [5]; TQL-1055 5 mcg combined with TLR4 ligand vs AS-01B (5 mcg MPL + 5 mcg QS-21))	T-cell response by ICS (CD4+ T cells expressing one or more cytokines on stimulation with VZV gE): dose dependence (CD4+ T cells [5]; [7])	T-cell response by FluoroSpot compared to AS-01B (spleen lymphocytes; [8])	T-cell response by FluoroSpot: dose dependence (spleen lymphocytes; [7])	antibody response by ELISA compared to AS-01B (VZV gE; [8])	antibody response by ELISA: dose dependence (VZV gE; [7])	weight loss compared to unadjuvanted [6]
CCCCCCCCCCC[C@H](CC(=O)N[C@H]1[C@H](OC[C@H](NC(=O)C[C@@H](CCCCCCCCCCC)OC(=O)CCCCCCCCC)C(=O)O)O[C@H](CO)[C@@H](OP(=O)(O)O)[C@@H]1OC(=O)C[C@@H](CCCCCCCCCCC)OC(=O)CCCCCCCCC)OC(=O)CCCCCCCCC [CRX-527]	no effect	lowest	significantly increased	significantly higher	significantly higher	significantly increased	–	–	–	–	–	–	–
CC1O[C@@H](OC2C(O)[C@@H](NC(=O)CCCCCCCCCCC(=O)O)C(CO)O[C@H]2OC(=O)[C@]23CCC(C)(C)CC2C2=CCC4C5(C)CC[C@H](O)C(C)(C=O)C5CCC4(C)C2(C)CC3O)C(O)C(O)[C@H]1O[C@@H]1OC[C@@H](O)C(O)C1O (stereo partly shown) [TQL-1055]	–	–	–	–	–	–	without any significant difference	dose-dependent	without any significant difference	dose-dependent	without any significant difference	dose-dependent	no significant weight loss
